In US10111432B2, “Picolinamide N-oxide compounds with fungicidal activity” (Dow AgroSciences LLC, priority 2016, dated 2018):
Read-outs that look alike come from different tables or passages of the source.

Columns and labels:
Zymoseptoria tritici = test: Fungicidal activity: leaf blotch of wheat (SEPTTR), disease control on wheat seedlings; format: in vivo; details: for pest or weed control at 121.5 g/ha: low volume application, 121.5 g/H; for pest or weed control at 100 ppm: high volume application
Description: Technical grades of materials were dissolved in acetone, which were then mixed with nine volumes of water (H2O) containing 110 ppm Triton X-100. The fungicide solutions were applied onto wheat seedlings using an automated booth sprayer to run-off. All sprayed plants were allowed to air dry prior to further handling. All fungicides were evaluated using the aforementioned method for their activity vs. all target diseases, unless stated otherwise. Wheat leaf blotch and brown rust activity were also evaluated using track spray applications, in which case the fungicides were formulated as EC formulations, containing 0.1% Trycol 5941 in the spray solutions. Wheat plants (variety Yuma) were grown from seed in a greenhouse in 50% mineral soil/50% soil-less Metro mix until the first leaf was fully emerged, with 7-10 seedlings per pot. These plants were inoculated with an aqueous spore suspension of Zymoseptoria tritici either prior to or after fungicide treatments. After inoculation the plants were kept in 100% relative humidity (one day in a dark dew chamber followed by two to three days in a lighted dew chamber at 20° C.) to permit spores to germinate and infect the leaf. The plants were then transferred to a greenhouse set at 20° C. for disease to develop. When disease symptoms were fully expressed on the 1st leaves of untreated plants, infection levels were assessed on a scale of 0 to 100 percent disease severity. Percent disease control was calculated using the ratio of disease severity on treated plants relative to untreated plants.

Puccinia triticina = test: Fungicidal activity: wheat brown rust (PUCCRT), disease control on wheat seedlings; format: in vivo; details: for pest or weed control at 121.5 g/ha: low volume application, 121.5 g/H; for pest or weed control at 100 ppm: high volume application
Description: Technical grades of materials were dissolved in acetone, which were then mixed with nine volumes of water (H2O) containing 110 ppm Triton X-100. The fungicide solutions were applied onto wheat seedlings using an automated booth sprayer to run-off. All sprayed plants were allowed to air dry prior to further handling. All fungicides were evaluated using the aforementioned method for their activity vs. all target diseases, unless stated otherwise. Wheat leaf blotch and brown rust activity were also evaluated using track spray applications, in which case the fungicides were formulated as EC formulations, containing 0.1% Trycol 5941 in the spray solutions. Wheat plants (variety Yuma) were grown from seed in a greenhouse in 50% mineral soil/50% soil-less Metro mix until the first leaf was fully emerged, with 7-10 seedlings per pot. These plants were inoculated with an aqueous spore suspension of Puccinia triticina either prior to or after fungicide treatments. After inoculation the plants were kept in a dark dew room at 22° C. with 100% relative humidity overnight to permit spores to germinate and infect the leaf. The plants were then transferred to a greenhouse set at 24° C. for disease to develop. Fungicide formulation, application and disease assessment followed the procedures as described in the Example A. Results of the evaluations are shown below in Table 4.

[1] = 24 h, 1 day protectant, read-out: SEPTTR disease control, 1DP, LV activity at 121.5 g/H
[2] = 72 h, 3 day curative, read-out: SEPTTR disease control, 3DC, LV activity at 121.5 g/H
[3] = 24 h, 1 day protectant, read-out: PUCCRT disease control, 1DP, LV activity at 121.5 g/H
[4] = 72 h, 3 day curative, read-out: PUCCRT disease control, 3DC, LV activity at 121.5 g/H
[5] = 24 h, 1 day protectant, read-out: SEPTTR disease control, 1DP, HV activity at 100 ppm
[6] = 72 h, 3 day curative, read-out: SEPTTR disease control, 3DC, HV activity at 100 ppm
[7] = 24 h, 1 day protectant, read-out: PUCCRT disease control, 1DP, HV activity at 100 ppm
[8] = 72 h, 3 day curative, read-out: PUCCRT disease control, 3DC, HV activity at 100 ppm

Compound	pest or weed control at 121.5 g/ha (Zymoseptoria tritici; [1]) [%]	pest or weed control at 121.5 g/ha (Zymoseptoria tritici; [2]) [%]	pest or weed control at 121.5 g/ha (Puccinia triticina; [3]) [%]	pest or weed control at 121.5 g/ha (Puccinia triticina; [4]) [%]	pest or weed control at 100 ppm (Zymoseptoria tritici; [5]) [%]	pest or weed control at 100 ppm (Zymoseptoria tritici; [6]) [%]	pest or weed control at 100 ppm (Puccinia triticina; [7]) [%]	pest or weed control at 100 ppm (Puccinia triticina; [8]) [%]
COc1ccccc1C(c1ccccc1OC)[C@H](C)OC(=O)[C@H](C)NC(=O)c1c(O)c(OC)cc[n+]1[O-] [Compound 30]	> 80	> 80	≤ 80	≤ 80				
COc1cc[n+]([O-])c(C(=O)N[C@@H](C)C(=O)O[C@@H](C)C(c2ccc(F)cc2)c2ccc(F)cc2)c1O [Compound 13]	> 80	> 80	> 80	≤ 80	> 80	> 80	> 80	> 80
COc1cc[n+]([O-])c(C(=O)N[C@@H](C)C(=O)O[C@@H](C)C(c2ccc(C)cc2)c2ccc(C)cc2)c1O [Compound 39]	> 80	≤ 80	≤ 80					
COc1ccc(F)c(C(c2cc(OC)ccc2F)[C@H](C)OC(=O)[C@H](C)NC(=O)c2c(O)c(OC)cc[n+]2[O-])c1 [Compound 4]		> 80			≤ 80		> 80	≤ 80
COc1cc[n+]([O-])c(C(=O)N[C@@H](C)C(=O)O[C@@H](C)C(c2ccc(C)c(F)c2)c2ccc(C)c(F)c2)c1O [Compound 19]	> 80	> 80	≤ 80	≤ 80				
COc1cc[n+]([O-])c(C(=O)N[C@@H](C)C(=O)O[C@@H](C)C(c2ccc(Cl)c(Cl)c2)c2ccc(Cl)c(Cl)c2)c1O [Compound 5]	> 80	≤ 80	≤ 80		> 80	≤ 80		
CC[C@H](OC(=O)[C@H](C)NC(=O)c1c(O)c(OC)cc[n+]1[O-])[C@H](Oc1ccccc1)C(C)C [Compound 8]		≤ 80	≤ 80	> 80				
COc1cc(C(c2ccc(C)c(OC)c2)[C@H](C)OC(=O)[C@H](C)NC(=O)c2c(O)c(OC)cc[n+]2[O-])ccc1C [Compound 18]	> 80	> 80	≤ 80	≤ 80				
COc1ccc(C(c2ccc(OC)cc2F)[C@H](C)OC(=O)[C@H](C)NC(=O)c2c(O)c(OC)cc[n+]2[O-])c(F)c1 [Compound 3]	> 80	≤ 80	> 80	≤ 80	> 80	≤ 80	> 80	> 80
COc1cc[n+]([O-])c(C(=O)N[C@@H](C)C(=O)O[C@@H](C)[C@@H](c2ccccc2)c2ccc(F)cc2)c1O [Compound 2]	> 80		> 80	> 80	> 80	> 80	> 80	> 80
COc1cc(Cl)ccc1C(c1ccc(Cl)cc1OC)[C@H](C)OC(=O)[C@H](C)NC(=O)c1c(O)c(OC)cc[n+]1[O-] [Compound 37]	> 80	≤ 80	> 80					
COc1cc(F)ccc1[C@@H](c1ccc(F)cc1)[C@H](C)OC(=O)[C@H](C)NC(=O)c1c(O)c(OC)cc[n+]1[O-] [Compound 24]	> 80	> 80	> 80	≤ 80	> 80	> 80	> 80	> 80
COc1cc[n+]([O-])c(C(=O)N[C@@H](C)C(=O)O[C@@H](C)C(c2ccc(C)cc2C)c2ccc(C)cc2C)c1O [Compound 1, 2-(((S)-1-(((S)-1,1-bis(2,4-dimethylphenyl)propan-2-yl)oxy)-1-oxopropan-2-yl)carbamoyl)-3-hydroxy-4-methoxypyridine 1-oxide]	> 80	> 80	> 80	≤ 80	> 80	> 80	> 80	≤ 80
